One test deals with pneumolysin (Streptococcus pneumoniae serotype 2, UniProt Q04IN8). As to the kind of experiment: Inhibition of the haemolytic activity of pneumolysin (sheep erythrocytes). Type of test: cell-based. As to conditions: IC50, inhibition of pneumolysin-induced haemolysis of sheep erythrocytes; class symbols of Table 1.
pneumolysin, sequence (Q04IN8 whole entry): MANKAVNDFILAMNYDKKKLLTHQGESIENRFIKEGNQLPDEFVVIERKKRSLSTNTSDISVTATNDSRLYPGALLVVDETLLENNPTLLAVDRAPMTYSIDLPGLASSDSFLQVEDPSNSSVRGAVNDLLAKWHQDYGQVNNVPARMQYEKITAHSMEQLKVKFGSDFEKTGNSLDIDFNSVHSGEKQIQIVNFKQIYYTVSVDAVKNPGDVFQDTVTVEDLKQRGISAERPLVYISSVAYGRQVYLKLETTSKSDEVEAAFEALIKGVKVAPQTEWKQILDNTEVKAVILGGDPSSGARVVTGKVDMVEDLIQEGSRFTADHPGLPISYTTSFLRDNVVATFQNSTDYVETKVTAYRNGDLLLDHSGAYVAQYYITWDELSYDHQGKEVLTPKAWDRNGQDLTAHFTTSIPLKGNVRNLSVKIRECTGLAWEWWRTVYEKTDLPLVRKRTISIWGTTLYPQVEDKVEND
As a reminder, the IC50 is the concentration that gives 50% inhibition. A low value points to greater potency in that assay. As for `CCN(CC)C(=O)c1c(O)c(O)c(C(=O)N(CC)CC)n1-c1ccc(F)cc1` [UL1-001, N^2,N^2,N^5,N^5-tetraethyl-1-(4-fluorophenyl)-3,4-dihydroxy-1H-pyrrole-2,5-dicarboxamide], the IC50 was less than 10 µM.
The same measure, in the same setting: with `CCOc1ccc(-n2c(C(=O)N(CC)CC)c(O)c(O)c2C(=O)N(CC)CC)cc1` [UL1-002, 1-(4-ethoxyphenyl)-N^2,N^2,N^5,N^5-tetraethyl-3,4-dihydroxy-1H-pyrrole-2,5-dicarboxamide] the figure was less than 10 µM; with `CCN(CC)C(=O)c1c(O)c(O)c(C(=O)N(CC)CC)n1-c1ccc(OC)cc1` [UL1-003, N^2,N^2,N^5,N^5-tetraethyl-3,4-dihydroxy-1-(4-methoxyphenyl)-1H-pyrrole-2,5-dicarboxamide], less than 10 µM; with `COc1ccc(-n2c(C(=O)N3CCOCC3)c(O)c(O)c2C(=O)N2CCOCC2)cc1` [UL1-004, (3,4-dihydroxy-1-(4-methoxyphenyl)-1H-pyrrole-2,5-diyl)bis(morpholinomethanone)], less than 10 µM.
Same read-out and setting: then `COc1ccc(-n2c(C(=O)N(C)C)c(O)c(O)c2C(=O)N(C)C)cc1` [UL1-005, 3,4-dihydroxy-1-(4-methoxyphenyl)-N^2,N^2,N^5,N^5-tetramethyl-1H-pyrrole-2,5-dicarboxamide], with less than 10 µM; and `O=C(c1c(O)c(O)c(C(=O)N2CCOCC2)n1-c1ccc(F)cc1)N1CCOCC1` [UL1-006, (1-(4-fluorophenyl)-3,4-dihydroxy-1H-pyrrole-2,5-diyl)bis(morpholinomethanone)], with less than 10 µM; and `CN(C(=O)c1c(O)c(O)c(C(=O)N(C)c2ccccc2)n1-c1ccc(F)cc1)c1ccccc1` [UL1-007, 1-(4-fluorophenyl)-3,4-dihydroxy-N^2,N^5-dimethyl-N^2,N^5-diphenyl-1H-pyrrole-2,5-dicarboxamide], with 20 to 60 µM.
Consider `CC(C)(C)OC(=O)N1CCN(C(=O)c2c(O)c(O)c(C(=O)N3CCN(C(=O)OC(C)(C)C)CC3)n2-c2ccc(F)cc2)CC1` [UL1-009, di-tert-butyl 4,4′-(1-(4-fluorophenyl)-3,4-dihydroxy-1H-pyrrole-2,5-dicarbonyl)bis(piperazine-1-carboxylate)], for which the IC50 was less than 10 µM.
Same read-out and setting: with `CC(=O)N1CCN(C(=O)c2c(O)c(O)c(C(=O)N3CCN(C(C)=O)CC3)n2-c2ccc(F)cc2)CC1` [UL1-010, 1,1′-(4,4′-(1-(4-fluorophenyl)-3,4-dihydroxy-1H-pyrrole-2,5-dicarbonyl)bis(piperazine-4,1-diyl))diethanone] the figure was less than 10 µM.
For `O=C(c1c(O)c(O)c(C(=O)N2CCCCC2)n1-c1ccc(F)cc1)N1CCCCC1` [UL1-011, (1-(4-fluorophenyl)-3,4-dihydroxy-1H-pyrrole-2,5-diyl)bis(piperidin-1-ylmethanone)], the concentration for half-maximal inhibition (IC50) is less than 10 µM.
The same measure, in the same setting: then `CC(C)N(C)C(=O)c1c(O)c(O)c(C(=O)N(C)C(C)C)n1-c1ccc(F)cc1` [UL1-013, 1-(4-fluorophenyl)-3,4-dihydroxy-N^2,N^5-diisopropyl-N^2,N^5-dimethyl-1H-pyrrole-2,5-dicarboxamide], with less than 10 µM; and `CN(Cc1ccccc1)C(=O)c1c(O)c(O)c(C(=O)N(C)Cc2ccccc2)n1-c1ccc(F)cc1` [UL1-014, N^2,N^5-dibenzyl-1-(4-fluorophenyl)-3,4-dihydroxy-N^2,N^5-dimethyl-1H-pyrrole-2,5-dicarboxamide], with less than 10 µM.
`COc1ccc(-n2c(C(=O)N3CCN(C(=O)OC(C)(C)C)CC3)c(O)c(O)c2C(=O)N2CCN(C(=O)OC(C)(C)C)CC2)cc1` [UL1-015, di-tert-butyl 4,4′-(3,4-dihydroxy-1-(4-methoxyphenyl)-1H-pyrrole-2,5-dicarbonyl)bis(piperazine-1-carboxylate)] displayed an IC50 of less than 10 µM.
Same read-out and setting: with `COc1ccc(-n2c(C(=O)N3CCNCC3)c(O)c(O)c2C(=O)N2CCNCC2)cc1` [UL1-016, (3,4-dihydroxy-1-(4-methoxyphenyl)-1H-pyrrole-2,5-diyl)bis(piperazin-1-ylmethanone)] the figure was less than 10 µM.
Still for that read-out and setting: then `CC(C)N(C(=O)c1c(O)c(O)c(C(=O)N(C(C)C)C(C)C)n1-c1ccc(F)cc1)C(C)C` [UL1-017, 1-(4-fluorophenyl)-3,4-dihydroxy-N^2,N^2,N^5,N^5-tetraisopropyl-1H-pyrrole-2,5-dicarboxamide], with less than 10 µM; and `COc1ccc(-n2c(C(=O)N3CCCCC3)c(O)c(O)c2C(=O)N2CCCCC2)cc1` [UL1-018, (3,4-dihydroxy-1-(4-methoxyphenyl)-1H-pyrrole-2,5-diyl)bis(piperidin-1-ylmethanone)], with less than 10 µM; and `COc1ccccc1-n1c(C(=O)N(C)C)c(O)c(O)c1C(=O)N(C)C` [UL1-019, 3,4-dihydroxy-1-(2-methoxyphenyl)-N^2,N^2,N^5,N^5-tetramethyl-1H-pyrrole-2,5-dicarboxamide], with less than 10 µM.
On the same count and under the same terms, then `COc1ccccc1-n1c(C(=O)N2CCOCC2)c(O)c(O)c1C(=O)N1CCOCC1` [UL1-020, (3,4-dihydroxy-1-(2-methoxyphenyl)-1H-pyrrole-2,5-diyl)bis(morpholinomethanone)], with less than 10 µM; and `CCOc1ccc(-n2c(C(=O)N(C)C)c(O)c(O)c2C(=O)N(C)C)cc1` [UL1-021, 1-(4-ethoxyphenyl)-3,4-dihydroxy-N^2,N^2,N^5,N^5-tetramethyl-1H-pyrrole-2,5-dicarboxamide], with less than 10 µM; and `CCOc1ccc(-n2c(C(=O)N3CCOCC3)c(O)c(O)c2C(=O)N2CCOCC2)cc1` [UL1-022, (1-(4-ethoxyphenyl)-3,4-dihydroxy-1H-pyrrole-2,5-diyl)bis(morpholinomethanone)], with less than 10 µM.
As to `O=C(c1c(O)c(O)c(C(=O)N2CCOCC2)n1-c1ccc(C(F)(F)F)cc1)N1CCOCC1` [UL1-023, (3,4-dihydroxy-1-(4-(trifluoromethyl)phenyl)-1H-pyrrole-2,5-diyl)bis(morpholinomethanone)], the concentration for half-maximal inhibition (IC50) was less than 10 µM.
On the same count and under the same terms, with `CCNC(=O)c1c(O)c(O)c(C(=O)N(C)C)n1-c1ccc(OC)cc1` [UL1-024, N^2-ethyl-3,4-dihydroxy-1-(4-methoxyphenyl)-N^5,N^5-dimethyl-1H-pyrrole-2,5-dicarboxamide] the figure was less than 10 µM.
The same measure, in the same setting: then `COc1ccc(-n2c(C(=O)N(C)C)c(O)c(O)c2C(=O)N2CCCCC2)cc1` [UL1-025, 3,4-dihydroxy-1-(4-methoxyphenyl)-N,N-dimethyl-5-(piperidine-1-carbonyl)-1H-pyrrole-2-carboxamide], with less than 10 µM; and `COc1ccc(-n2c(C(=O)N(C)C)c(O)c(O)c2C(=O)N2CCOCC2)cc1` [UL1-026, 3,4-dihydroxy-1-(4-methoxyphenyl)-N,N-dimethyl-5-(morpholine-4-carbonyl)-1H-pyrrole-2-carboxamide], with less than 10 µM; and `COc1ccc(-n2c(C(=O)N(C)C)c(O)c(O)c2C(=O)N2CCN(C)CC2)cc1` [UL1-027, 3,4-dihydroxy-1-(4-methoxyphenyl)-N,N-dimethyl-5-(4-methylpiperazine-1-carbonyl)-1H-pyrrole-2-carboxamide], with less than 10 µM.
Still for that read-out and setting: with `CN(C)C(=O)c1c(O)c(O)c(C(=O)N(C)C)n1-c1ccc(C(F)(F)F)cc1` [UL1-028, 3,4-dihydroxy-N^2,N^2,N^5,N^5-tetramethyl-1-(4-(trifluoromethyl)phenyl)-1H-pyrrole-2,5-dicarboxamide] the figure was less than 10 µM.
`CN(C)C(=O)c1ccc(-n2c(C(=O)N(C)C)c(O)c(O)c2C(=O)N(C)C)cc1` [UL1-029, 1-(4-(dimethylcarbamoyl)phenyl)-3,4-dihydroxy-N^2,N^2,N^5,N^5-tetramethyl-1H-pyrrole-2,5-dicarboxamide] displayed an IC50 of less than 10 µM.
In the case of `COc1ccc(-n2c(C(=O)N(C)C)c(O)c(O)c2S(=O)(=O)NC(=O)OC(C)(C)C)cc1` [UL1-030, tert-butyl (5-(dimethylcarbamoyl)-3,4-dihydroxy-1-(4-methoxyphenyl)-1H-pyrrol-2-yl)sulfonylcarbamate], the IC50 lay within 20 to 60 µM.
On the same count and under the same terms, then `COc1ccc(-n2c(C#N)c(O)c(O)c2C(=O)N(C)C)cc1` [UL1-031, 5-cyano-3,4-dihydroxy-1-(4-methoxyphenyl)-N,N-dimethyl-1H-pyrrole-2-carboxamide], with less than 10 µM.
The same measure, in the same setting: then `CCOC(=O)c1c(O)c(O)c(C(=O)N(C)C)n1-c1ccc(F)cc1` [UL1-032, ethyl 5-(dimethylcarbamoyl)-1-(4-fluorophenyl)-3,4-dihydroxy-1H-pyrrole-2-carboxylate], with less than 10 µM; and `COc1ccc(-n2c(C(=O)N3CCN(C(C)=O)CC3)c(O)c(O)c2C(=O)N2CCN(C(C)=O)CC2)cc1` [UL1-033, 1,1′-(4,4′-(3,4-dihydroxy-1-(4-methoxyphenyl)-1H-pyrrole-2,5-dicarbonyl)bis(piperazine-4,1-diyl))diethanone], with less than 10 µM; and `COc1ccc(-n2c(C#N)c(O)c(O)c2C#N)cc1` [UL1-034, 3,4-dihydroxy-1-(4-methoxyphenyl)-1H-pyrrole-2,5-dicarbonitrile], with 20 to 60 µM.
Still for that read-out and setting: then `COc1ccc(-n2c(C(=O)OC(C)C)c(O)c(O)c2C(=O)N(C)C)cc1` [UL1-035, isopropyl 5-(dimethylcarbamoyl)-3,4-dihydroxy-1-(4-methoxyphenyl)-1H-pyrrole-2-carboxylate], with less than 10 µM; and `COc1ccc(-n2c(C(=O)OC(C)(C)C)c(O)c(O)c2C(=O)N(C)C)cc1` [UL1-036, tert-butyl 5-(dimethylcarbamoyl)-3,4-dihydroxy-1-(4-methoxyphenyl)-1H-pyrrole-2-carboxylate], with less than 10 µM; and `CCOC(=O)c1c(O)c(O)c(C(=O)N2CCN(C)CC2)n1-c1ccc(OC)cc1` [UL1-037, ethyl 3,4-dihydroxy-1-(4-methoxyphenyl)-5-(4-methylpiperazine-1-carbonyl)-1H-pyrrole-2-carboxylate], with less than 10 µM.
In turn, `CCCCN(CCCC)C(=O)c1c(O)c(O)c(C(=O)OCC)n1-c1ccc(OC)cc1` [UL1-038, ethyl 5-(dibutylcarbamoyl)-3,4-dihydroxy-1-(4-methoxyphenyl)-1H-pyrrole-2-carboxylate] gave a concentration for half-maximal inhibition (IC50) of less than 10 µM.

Staying with this test, now noted: IC50, inhibition of pneumolysin-induced haemolysis of sheep erythrocytes; specific values.
The compound `COc1ccc(-n2c(C(=O)N3CCOCC3)c(O)c(O)c2C(=O)N2CCOCC2)cc1` [UL1-004, (3,4-dihydroxy-1-(4-methoxyphenyl)-1H-pyrrole-2,5-diyl)bis(morpholinomethanone)] returned an IC50 of 0.17 µM.
With `COc1ccc(-n2c(C(=O)N(C)C)c(O)c(O)c2C(=O)N(C)C)cc1` [UL1-005, 3,4-dihydroxy-1-(4-methoxyphenyl)-N^2,N^2,N^5,N^5-tetramethyl-1H-pyrrole-2,5-dicarboxamide], it took 0.15 µM to reach half-maximal inhibition (IC50).
Still for that read-out and setting: then `CCNC(=O)c1c(O)c(O)c(C(=O)N(C)C)n1-c1ccc(OC)cc1` [UL1-024, N^2-ethyl-3,4-dihydroxy-1-(4-methoxyphenyl)-N^5,N^5-dimethyl-1H-pyrrole-2,5-dicarboxamide], with 0.182 µM.
Same read-out and setting: then `CN(C)C(=O)c1c(O)c(O)c(C(=O)N(C)C)n1-c1ccc(C(F)(F)F)cc1` [UL1-028, 3,4-dihydroxy-N^2,N^2,N^5,N^5-tetramethyl-1-(4-(trifluoromethyl)phenyl)-1H-pyrrole-2,5-dicarboxamide], with 0.068 µM; and `COc1ccc(-n2c(C(=O)OC(C)C)c(O)c(O)c2C(=O)N(C)C)cc1` [UL1-035, isopropyl 5-(dimethylcarbamoyl)-3,4-dihydroxy-1-(4-methoxyphenyl)-1H-pyrrole-2-carboxylate], with 0.15 µM.
